Our source for the AC50 values is US20250171438A1 (Agios Pharmaceuticals, Inc., priority 2022, published 2025).

A value given as a limit tells only on which side of the number the result lay.

One test deals with T1, human PAH with the R408W mutation (Homo sapiens, UniProt P00439, R408W).
T1 construct: expressed in transfected cells
T1 sequence (P00439 1-452 R408W): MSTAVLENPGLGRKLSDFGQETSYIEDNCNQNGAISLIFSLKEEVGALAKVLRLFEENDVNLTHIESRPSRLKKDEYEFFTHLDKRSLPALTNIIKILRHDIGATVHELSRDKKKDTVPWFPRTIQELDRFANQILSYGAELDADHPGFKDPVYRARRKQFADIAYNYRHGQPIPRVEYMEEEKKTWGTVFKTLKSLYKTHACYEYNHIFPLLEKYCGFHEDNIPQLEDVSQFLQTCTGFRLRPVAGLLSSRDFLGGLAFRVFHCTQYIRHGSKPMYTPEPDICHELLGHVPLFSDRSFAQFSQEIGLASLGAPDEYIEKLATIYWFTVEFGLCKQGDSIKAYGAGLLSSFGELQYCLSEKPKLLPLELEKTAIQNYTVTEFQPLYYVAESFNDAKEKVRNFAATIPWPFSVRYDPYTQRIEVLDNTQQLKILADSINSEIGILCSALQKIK
Briefly: Cell Based Phenylalanine Flux Assay. The following applies: A375 cells expressing human R408W PAH; 24 hrs compound incubation; 13C-Tyrosine by LC-MS; average where tested multiple times; read-out: AC50.
In the case of `O=C(c1cnn(CC2CC(F)(F)C2)c1Cl)N1CCc2[nH]cnc2[C@@H]1c1nc2c(F)cccc2s1` [Example 1990, (R)-(5-chloro-1-((3,3-difluorocyclobutyl)methyl)-1H-pyrazol-4-yl)(4-(4-fluorobenzo[d]thiazol-2-yl)-6,7-dihydro-1H-imidazo[4,5-c]pyridin-5(4H)-yl)methanone], the half-maximal activity concentration (AC50) lay within 1000 to 5000 nM. As for `O=C(c1ncco1)N1CCc2[nH]cnc2[C@@H]1c1nc2cccc(F)c2s1` [Example 1280, (R)-(4-(7-fluorobenzo[d]thiazol-2-yl)-6,7-dihydro-1H-imidazo[4,5-c]pyridin-5(4H)-yl)(oxazol-2-yl)methanone], the AC50 lay in the range of 1000 to 5000 nM. Consider `COCCc1ccc2c(C(=O)N3CCc4[nH]cnc4[C@H]3c3nc4ccccc4s3)cnn2c1` [Example 1451], for which the half-maximal activity concentration (AC50) is under 500 nM. Take `O=C(CC1CC1(F)F)N1CCc2[nH]cnc2[C@H]1c1nc2ccccc2s1` (single isomer, unassigned) [Example 1271]: the AC50 was under 500 nM. `CC(C)(C)c1ncc(C(=O)N2CCc3[nH]cnc3[C@H]2c2nc3c(F)cccc3s2)s1` [Example 1425]: the concentration at half-maximal activity (AC50) is under 500 nM. Turning to `Cn1cc(C(=O)N2CCc3[nH]cnc3[C@H]2c2nc3c(F)cccc3s2)c(C(F)F)n1` [Example 1841, (S)-(3-(difluoromethyl)-1-methyl-1H-pyrazol-4-yl)(4-(4-fluorobenzo[d]thiazol-2-yl)-6,7-dihydro-1H-imidazo[4,5-c]pyridin-5(4H)-yl)methanone], the AC50 was under 500 nM. On the same count and under the same terms, for `O=C(c1cnc(C(F)(F)F)o1)N1CCc2[nH]cnc2[C@@H]1c1nc2c(F)cccc2s1` [Example 1402, (R)-(4-(4-fluorobenzo[d]thiazol-2-yl)-6,7-dihydro-1H-imidazo[4,5-c]pyridin-5(4H)-yl)(2-(trifluoromethyl)oxazol-5-yl)methanone] the value was 1000 to 5000 nM; for `O=C(c1cnn2ccc(Br)cc12)N1CCc2[nH]cnc2[C@@H]1c1nc2cccc(F)c2s1` [Example 1284, (R)-(5-bromopyrazolo[1,5-a]pyridin-3-yl)(4-(7-fluorobenzo[d]thiazol-2-yl)-6,7-dihydro-1H-imidazo[4,5-c]pyridin-5(4H)-yl)methanone], 1000 to 5000 nM; for `O=C(c1ocnc1C1CC1)N1CCc2[nH]cnc2[C@@H]1c1nc2ccccc2s1` [Example 1328, (R)-(4-(benzo[d]thiazol-2-yl)-6,7-dihydro-1H-imidazo[4,5-c]pyridin-5(4H)-yl)(4-cyclopropyloxazol-5-yl)methanone], 1000 to 5000 nM.

Take `O=C(c1nnc(-c2ncccc2F)o1)N1CCc2[nH]cnc2[C@H]1c1nc2c(F)cccc2s1` [Example 1902, (S)-(4-(4-fluorobenzo[d]thiazol-2-yl)-6,7-dihydro-1H-imidazo[4,5-c]pyridin-5(4H)-yl)(5-(3-fluoropyridin-2-yl)-1,3,4-oxadiazol-2-yl)methanone]: the AC50 was under 500 nM. Take `Cn1cc(C(=O)N2CCc3[nH]cnc3[C@@H]2c2nc3c(F)cccc3s2)c(C(F)F)n1` [Example 1842, (R)-(3-(difluoromethyl)-1-methyl-1H-pyrazol-4-yl)(4-(4-fluorobenzo[d]thiazol-2-yl)-6,7-dihydro-1H-imidazo[4,5-c]pyridin-5(4H)-yl)methanone]: the concentration at half-maximal activity (AC50) is 1000 to 5000 nM. On the same count and under the same terms, the figure for `O=C(C1CC1)N1CCc2[nH]cnc2[C@H]1c1nc2ccc(Br)cc2[nH]1` [Example 952, (S)-(4-(6-bromo-1H-benzo[d]imidazol-2-yl)-6,7-dihydro-1H-imidazo[4,5-c]pyridin-5(4H)-yl)(cyclopropyl)methanone] is 500 to 1000 nM. Still for that read-out and setting: for `O=C(Cc1nccs1)N1CCc2[nH]cnc2[C@H]1c1nc2cccc(Br)c2s1` [Example 1176, (S)-1-(4-(7-bromobenzo[d]thiazol-2-yl)-6,7-dihydro-1H-imidazo[4,5-c]pyridin-5(4H)-yl)-2-(thiazol-2-yl)ethanone] the value was 500 to 1000 nM. Regarding `Cc1ncoc1C(=O)N1CCc2[nH]cnc2[C@@H]1c1nc2ccccc2s1` [Example 1162, (R)-(4-(benzo[d]thiazol-2-yl)-6,7-dihydro-1H-imidazo[4,5-c]pyridin-5(4H)-yl)(4-methyloxazol-5-yl)methanone], the half-maximal activity concentration (AC50) fell in the range of 1000 to 5000 nM.

Take `Cc1ccn2ncc(C(=O)N3CCc4[nH]cnc4[C@@H]3c3nc4ccccc4s3)c2c1` [Example 1126, (R)-(4-(benzo[d]thiazol-2-yl)-6,7-dihydro-1H-imidazo[4,5-c]pyridin-5(4H)-yl)(5-methylpyrazolo[1,5-a]pyridin-3-yl)methanone]: the AC50 was in the range of 1000 to 5000 nM. For the compound `O=C(CCC1CC1)N1CCc2[nH]cnc2[C@H]1c1nc2ccc(Br)cc2s1` [Example 1145, (S)-1-(4-(6-bromobenzo[d]thiazol-2-yl)-6,7-dihydro-1H-imidazo[4,5-c]pyridin-5(4H)-yl)-3-cyclopropylpropan-1-one], the AC50 is under 500 nM. As for `O=C(c1oc(-c2ccccn2)nc1C(F)(F)F)N1CCCc2[nH]cnc2[C@@H]1c1nc2ccccc2s1` [Example 2122, (R)-(4-(benzo[d]thiazol-2-yl)-7,8-dihydroimidazo[4,5-c]azepin-5(1H,4H,6H)-yl)(2-(pyridin-2-yl)-4-(trifluoromethyl)oxazol-5-yl)methanone], the AC50 fell in the range of 1000 to 5000 nM. Turning to `Cc1ccc(-c2nnc(C(=O)N3CCc4[nH]cnc4[C@H]3c3nc4ccccc4s3)o2)nc1` [Example 1880], the concentration at half-maximal activity (AC50) was under 500 nM.

`O=C(CCc1ncc(Cl)s1)N1CCc2[nH]cnc2[C@@H]1c1nc2ccccc2s1` [Example 1026, (R)-1-(4-(benzo[d]thiazol-2-yl)-6,7-dihydro-1H-imidazo[4,5-c]pyridin-5(4H)-yl)-3-(5-chlorothiazol-2-yl)propan-1-one]: the AC50 was in the range of 1000 to 5000 nM. Same read-out and setting: for `O=C(c1scnc1C1CC1)N1CCc2[nH]cnc2[C@@H]1c1nc2ccccc2s1` [Example 1388, (R)-(4-(benzo[d]thiazol-2-yl)-6,7-dihydro-1H-imidazo[4,5-c]pyridin-5(4H)-yl)(4-cyclopropylthiazol-5-yl)methanone] the value was 1000 to 5000 nM; for `O=C(C1CC1(F)F)N1CCc2[nH]cnc2[C@H]1c1nc2ccccc2s1` (single isomer, unassigned) [Example 1288], 500 to 1000 nM; for `CC[C@H](O)c1nc(C(F)F)c(C(=O)N2CCc3[nH]cnc3[C@H]2c2nc3c(F)cccc3s2)o1` [Example 2063], under 500 nM. Same read-out and setting: the figure for `O=C(c1cnc(C2CC2)o1)N1CCc2[nH]cnc2[C@@H]1c1nc2c(F)cccc2s1` [Example 1330, (R)-(2-cyclopropyloxazol-5-yl)(4-(4-fluorobenzo[d]thiazol-2-yl)-6,7-dihydro-1H-imidazo[4,5-c]pyridin-5(4H)-yl)methanone] is 1000 to 5000 nM; for `c1ccc2sc([C@@H]3c4nc[nH]c4CCN3Cc3nccs3)nc2c1` [Example 1139, (S)-2-(5-(thiazol-2-ylmethyl)-4,5,6,7-tetrahydro-1H-imidazo[4,5-c]pyridin-4-yl)benzo[d]thiazole] it is 500 to 1000 nM. In the case of `O=C(c1nnc(-c2ccc(F)c(F)c2)o1)N1CCc2[nH]cnc2[C@H]1c1nc2ccccc2s1` [Example 1801], the AC50 is under 500 nM. In the case of `COCc1ncc(C(=O)N2CCc3[nH]cnc3[C@H]2c2nc3c(F)cccc3s2)s1` [Example 1703, (S)-(4-(4-fluorobenzo[d]thiazol-2-yl)-6,7-dihydro-1H-imidazo[4,5-c]pyridin-5(4H)-yl)(2-(methoxymethyl)thiazol-5-yl)methanone], the AC50 lay within 500 to 1000 nM.

As to `O=C(c1nnc(-c2cnn(C3CCC3)c2)o1)N1CCc2[nH]cnc2[C@H]1c1nc2ccccc2s1` [Example 1828], the AC50 was under 500 nM. With `O=C(c1nnc(-c2ccccc2)o1)N1CCc2[nH]cnc2[C@H]1c1nc2ccccc2s1` [Example 1417], the AC50 is under 500 nM.

Still in this test, the particulars now being: A375 cells expressing human R408W PAH; 24 hrs with compound; 13C-Tyrosine by LC-MS; average where tested multiple times; read-out: AC50.
`O=C(CCc1nnc(C(F)F)o1)N1CCc2[nH]cnc2C1c1nc2ccccc2s1` (stereo not drawn): the concentration at half-maximal activity (AC50) was 1000 to 5000 nM. Still for that read-out and setting: for `O=C(Cc1coc(C(F)F)n1)N1CCc2[nH]cnc2C1c1nc2ccccc2s1` (stereo not drawn) the value was over 5000 nM. Take `CC1CN(C(=O)c2cnc(CN(C)C)o2)C(c2nc3ccccc3s2)c2nc[nH]c21` (stereo not drawn): the half-maximal activity concentration (AC50) was over 5000 nM. Consider `O=C(c1cnc(COc2ccccc2)s1)N1CCc2[nH]cnc2C1c1nc2ccccc2s1` (stereo not drawn), for which the AC50 is 1000 to 5000 nM.

With `O=C(c1ncco1)N1CCc2[nH]cnc2C1c1nc2cc(F)ccc2s1` (stereo not drawn), the AC50 was over 5000 nM. Take `O=C(c1nccs1)N1CCc2[nH]cnc2C1c1nc2ccc(Br)cc2s1` (stereo not drawn): the concentration at half-maximal activity (AC50) lay in the range of 1000 to 5000 nM. As for `Nc1nnc(CCC(=O)N2CCc3[nH]cnc3C2c2nc3ccccc3[nH]2)s1` (stereo not drawn), the concentration at half-maximal activity (AC50) is over 5000 nM.

In the case of `CCc1nnc(CCC(=O)N2CCc3[nH]cnc3[C@H]2c2nc3ccccc3[nH]2)s1` [(S)-1-(4-(1H-benzo[d]imidazol-2-yl)-1,4,6,7-tetrahydro-5H-imidazo[4,5-c]pyridin-5-yl)-3-(5-ethyl-1,3,4-thiadiazol-2-yl)propan-1-one], the AC50 lay in the range of 1000 to 5000 nM. As to `Cc1nc(N2CCOCC2)oc1C(=O)N1CCc2[nH]cnc2C1c1nc2c(F)cccc2s1` (stereo not drawn), the half-maximal activity concentration (AC50) was over 5000 nM. On to `Cc1nc(CCN2CC(F)C2)oc1C(=O)N1CCc2[nH]cnc2C1c1nc2ccccc2s1` (stereo not drawn), for which the concentration at half-maximal activity (AC50) is over 5000 nM. For `O=C(C1CC1)N1CCc2[nH]cnc2C1c1nc2ccc(F)cc2s1` (stereo not drawn), the AC50 lay in the range of 1000 to 5000 nM.

As to `CC(=O)N1CCc2[nH]cnc2C1c1nc2ccccc2[nH]1` (stereo not drawn), the half-maximal activity concentration (AC50) is over 5000 nM. Regarding `COc1ccn2ncc(C(=O)N3CCc4[nH]cnc4C3c3nc4ccc(F)cc4s3)c2c1` (stereo not drawn), the concentration at half-maximal activity (AC50) was in the range of 1000 to 5000 nM. As to `O=C(c1cnco1)N1CCCc2[nH]cnc2C1c1nc2ccccc2s1` (stereo not drawn), the AC50 is over 5000 nM.
